Data on one compound can be found in patent publication US20220409617A1, “Drug Formulations and Methods of Treatment for Metabolic Disorders” (The Regents of the University of California, priority 2019, published 2022).

This test in a line: Indirect calorimetry and food intake in metabolic cages. It is filed as in vivo, mouse. As to the method: To examine the effects of sphingolipid-like compound 893 on whole body metabolism, indirect calorimetry was performed. Male C57BL/6J mice were maintained on the SD or HFD for 10-12 weeks, acclimated to metabolic cages that mimic the home environment, and then treated with vehicle or 120 mg/kg sphingolipid-like compound 893 by gavage at ZT8.5. […] As expected, RER values were lower during both light and dark cycles and diurnal fluctuations in substrate utilization were blunted in HFD-fed mice relative to SD controls (FIGS. 29 & 30). […] Consistent with the pharmacokinetic properties of sphingolipid-like compound 893 (see FIG. 12), RER returned to control values 24 h after sphingolipid-like compound 893 treatment (FIGS. 28 & 29). Animals were similarly responsive to a second treatment with sphingolipid-like compound 893 given 48 h after the first.
Metabolic parameters were measured using the Phenomaster system (TSE Systems Inc., Chesterfield, Mo.). The climate chamber was set to 21° C. and 50% humidity with a 12:12 h light-dark cycle. Mice were singly housed inside the chamber and acclimated for 48 h prior to data collection. VO2, VCO2, and food intake was measured every 27 min. Respiratory exchange ratio (RER) was calculated using the formula RER=VCO2/VO2. Energy expenditure was calculated using the equation EE=1.44(3.941×VO2+1.106×VCO2). In the indirect calorimetry studies in FIGS. 12 to 14, C57BL/6J mice were maintained on the HFD or SD for 10-12 weeks prior to evaluation and were naïve to therapy. Mice were serially evaluated in cohorts of 4 vehicle- and 4 sphingolipid-like compound 893-treated mice using 8 metabolic cages. Treatment was by gavage at ZT8.5, sphingolipid-like compound 893 was administered at 120 mg/kg in water. To evaluate the effect of morning treatment, vehicle or 120 mg/kg sphingolipid-like compound 893 was administered at ZT2 to 18 week old C57BL/6J males on a standard diet. Liquid diet experiments were also performed on 18 week old C57BL/6J males; mice were treated with sphingolipid-like compound 893 at ZT8.5 and food access was restricted at ZT11. Liquid feed (AIN-76, BioServ, Flemington, N.J.) was prepared at 1000 kcal/L in milli-Q water and at ZT12, mice were gavaged with 400 μL (0.4 kcal) of diet, corresponding to approximately 3 h of ad libitum consumption of standard chow. For the pair feeding study, RER was monitored over 12 h in mice maintained on the HFD for 22 weeks (31 weeks of age); pair-fed mice were used after a 48 h wash-out period and provided with the average amount of food they ate over 24 h after sphingolipid-like compound 893 treatment (92.5 mg or 0.4 kcal).
During measurements of one SD cohort (4 vehicle- and 4 sphingolipid-like compound 893-treated mice), a leak in the reference CO2 system was detected, the O2 and CO2 data was censored until the leak was corrected (70-74 h). Feeding and activity measurements were not compromised and were still analyzed. Occasionally, uneaten food was found on the floor of the cage precluding use of the hopper sensor to accurately monitor food intake. In these instances, food intake data was censored for the prior 24 h period (days 2 and 3 for mouse 8 (SD+sphingolipid-like compound 893) and mouse 8 (SD+vehicle), and day 3 for mouse 8 (HFD+sphingolipid-like compound 893) and mouse 1 (HFD+vehicle)). […] In rare cases, inadvertent pharyngeal administration of gavage material occurred. These mice were not euthanized, but food intake, calorimetry, and activity data from these animals was excluded from the analysis for 1 week after this event (mouse 2 (HFD+sphingolipid-like compound 893) after the second treatment on day 3 and mouse 5 (HFD+sphingolipid-like compound 893) after the first dose on day 1).

Setting [1] is: mice on SD or HFD 10-12 weeks, 120 mg/kg p.o. at ZT8.5.

SMILES strings stand for the structures.

Regarding `CCCCCCCCc1ccc([C@H]2CCN[C@@H]2CO)cc1.Cl` [compound 893], the “Food intake and RER, morning dosing” value (120 mg/kg at ZT2, mice on standard diet) is “still decreased both food intake and RER”. Besides, under “120 mg/kg p.o. at ZT8.5”, the “Activity (XY beam breaks)” value is on record as “trend towards reduced activity”, the “Energy expenditure (Weir formula)” value is on record as “not significantly affected” and the “Time after treatment at which RER returned to control values” amounted to 24 h. Further, under “mice on HFD 22 weeks, 120 mg/kg once at ZT8.5”, the “Food intake and body weight loss, HFD for 22 weeks” value was “the suppression of food intake and body weight loss appeared to increase”. Under setting [1], the “Food intake in metabolic caging” value was “reduced food intake”; the “Respiratory exchange ratio (RER)” value is “reduced the RER in both HFD- and SD-fed mice”.
